# Reference: patent US20080113042A1, “PHARMACEUTICAL COMPOSITION AND METHOD FOR CANCER TREATMENT BASED ON COMBINATIONAL USE OF CONVENTIONAL ANTICANCER AGENTS AND GERANIUM OIL OR COMPOUNDS THEREOF” (priority 2006, published 2008)
# Legend:
# A-549 = assay: In vitro cytotoxicity, MTT assay; type: cell-based; conditions: Homo sapiens, A549, A-549 (lung), 48 hours
# MCF-7 = assay: In vitro cytotoxicity, MTT assay; type: cell-based; conditions: Homo sapiens, MCF7, MCF-7 (breast), 48 hours
# NCI-H1437 = assay: In vitro cytotoxicity, MTT assay; type: cell-based; conditions: Homo sapiens, NCI-H1437 (lung), 48 hours
# MDA-MB-231 = assay: In vitro cytotoxicity, MTT assay; type: cell-based; conditions: Homo sapiens, MDA-MB-231 (breast), 48 hours
# NCI-H838 = assay: In vitro cytotoxicity, MTT assay; type: cell-based; conditions: Homo sapiens, NCI-H838 (lung), 48 hours
# SK-OV-3 = assay: In vitro cytotoxicity, MTT assay; type: cell-based; conditions: Homo sapiens, SK-OV-3 (ovary), 48 hours
# [1] = system: subcutaneously implanted solid tumors induced by MDA-MB-231 cells; assay: In vivo antitumor efficacy test, breast tumor-bearing nude mice; conditions: MDA-MB-231 tumors in nude mice, intraperitoneally twice a week for 28 days; paclitaxel 5 mg/kg alone or paclitaxel 0.2 mg/kg + geraniol 45 mg/kg; p<0.001
# Protocol: The antitumor efficacy of composition comprising paclitaxel and geraniol against the subcutaneously implanted solid tumors induced by MDA-MB-231 cells in nude mice was evaluated. Treatments were initiated when the tumors inoculated in nude mice reached a tumor volume of 50-100 mm^3, and this day was designated as Day 1. Mice were divided into 3 different groups consisting of five mice in each group, and administered intraperitoneally with normal saline (control), paclitaxel (5 mg/kg) in normal saline, or composition comprising paclitaxel (0.2 mg/kg) and geraniol (45 mg/kg) twice a week for 28 days. The size of tumor and change of body weight of each mouse were recorded.
# The anticancer efficacy of the paclitaxel-geraniol composition was studied in breast tumor-bearing nude mice. […] In the control, mice were injected with normal saline. In Paclitaxel, mice were injected with paclitaxel (5 mg/kg) in normal saline. In the Paclitaxel-geraniol composition, mice were injected with composition comprising paclitaxel (0.2 mg/kg) and geraniol in normal saline.
Compound,IC50 (A-549),IC50 (MCF-7),IC50 (NCI-H1437),IC50 (MDA-MB-231),IC50 (NCI-H838),IC50 (SK-OV-3),tumor growth (size of tumor) versus control group [1]
"O=c1[nH]cc(F)c(=O)[nH]1 [Composition 5-FU, Fluorouracil]",5.9 µg/mL,38.7 µg/mL,> 100 µg/mL,328 µg/mL,12.1 µg/mL,66.6 µg/mL,
"CC(=O)O[C@H]1C(=O)[C@@]2(C)[C@H]([C@H](OC(=O)c3ccccc3)[C@]3(O)C[C@H](OC(=O)[C@H](O)[C@@H](NC(=O)c4ccccc4)c4ccccc4)C(C)=C1C3(C)C)[C@]1(OC(C)=O)CO[C@@H]1C[C@@H]2O [Paclitaxel, paclitaxel]",20.1 µg/mL,46 µg/mL,36.8 µg/mL,31.9 µg/mL,30.9 µg/mL,56.5 µg/mL,significantly suppressed the tumor growth in a similar manner
